“And” between values parts separate entries of the source, which are not always exact repeats. Equal entries are not always repeated. Inconclusive results and toxic doses are left out.
Test system: CD2F1 mice, L1210 leukemia ip, survival T/C
Assay: NCI In Vivo Anticancer Drug Screen. Data for tumor model L1210 Leukemia (intraperitoneal) in CD2F1 (CDF1) mice
Conditions: higher = longer survival
Method: The antitumor activity of compounds was measured in mice bearing transplantable tumors. Survival or tumor size were measured and the results are expressed as the measurement made in the treated group (T) divided by the measurement made in the vehicle treated control group (C). The tumor model used in this assay is L1210 Leukemia (intraperitoneal) in CD2F1 (CDF1) mice

[1] = endpoint: mean survival time, dose: 20.0 mg/kg/injection, schedule: Q01DX009 (ip), vehicle: saline with Tween-80
[2] = endpoint: mean survival time, dose: 25.0 mg/kg/injection, schedule: Q01DX009 (ip), vehicle: saline with Tween-80
[3] = endpoint: mean survival time, dose: 100.0 mg/kg/injection, schedule: Q01DX001 (ip), vehicle: saline with Tween-80
[4] = endpoint: mean survival time, dose: 200.0 mg/kg/injection, schedule: Q01DX001 (ip), vehicle: saline with Tween-80
[5] = endpoint: mean survival time, dose: 100.0 mg/kg/injection, schedule: Q04DX003 (ip), vehicle: saline with Tween-80
[6] = endpoint: mean survival time, dose: 200.0 mg/kg/injection, schedule: Q04DX003 (ip), vehicle: saline with Tween-80
[7] = endpoint: mean survival time, dose: 400.0 mg/kg/injection, schedule: Q04DX003 (ip), vehicle: saline with Tween-80
[8] = endpoint: mean survival time, dose: 100.0 mg/kg/injection, schedule: Q01DX009 (ip), vehicle: saline with Tween-80
[9] = endpoint: mean survival time, dose: 100.0 mg/kg/injection, schedule: Q01DX001 (ip), vehicle: saline
[10] = endpoint: mean survival time, dose: 200.0 mg/kg/injection, schedule: Q01DX001 (ip), vehicle: saline

CCCCCCCCCCCCCCCC(=O)OCC1OC(n2ccc(N)nc2=O)C(O)C1O (centres undefined)
T/C (endpoint: mean survival time, dose: 6.25 mg/kg/injection, schedule: Q01DX008 (ip), vehicle: saline): 320 % of control | T/C (endpoint: mean survival time, dose: 12.5 mg/kg/injection, schedule: Q01DX008 (ip), vehicle: saline): 377 % of control | T/C (endpoint: mean survival time, dose: 16.0 mg/kg/injection, schedule: Q01DX008 (oral), vehicle: saline): 117 % of control | T/C (endpoint: mean survival time, dose: 16.0 mg/kg/injection, schedule: Q03HX024 (oral), vehicle: saline with Tween-80): 202 % of control | T/C [1]: 479 % of control | T/C (endpoint: mean survival time, dose: 25.0 mg/kg/injection, schedule: Q01DX001 (ip), vehicle: saline with Tween-80): 150 % of control | T/C (endpoint: mean survival time, dose: 25.0 mg/kg/injection, schedule: Q01DX008 (ip), vehicle: saline): 491 % of control | T/C [2]: 484 % of control | T/C (endpoint: mean survival time, dose: 30.0 mg/kg/injection, schedule: Q01DX009 (ip), vehicle: saline with Tween-80): 184 % of control | T/C (endpoint: mean survival time, dose: 32.0 mg/kg/injection, schedule: Q03HX024 (oral), vehicle: saline with Tween-80): 235 % of control | T/C (endpoint: mean survival time, dose: 50.0 mg/kg/injection, schedule: Q01DX001 (ip), vehicle: saline with Tween-80): 192 % of control | T/C (endpoint: mean survival time, dose: 50.0 mg/kg/injection, schedule: Q01DX008 (ip), vehicle: saline): 285 % of control | T/C (endpoint: mean survival time, dose: 64.0 mg/kg/injection, schedule: Q03HX024 (oral), vehicle: saline with Tween-80): 265 % of control | T/C [3]: 312 % of control | T/C (endpoint: mean survival time, dose: 125.0 mg/kg/injection, schedule: Q01DX001 (ip), vehicle: saline with Tween-80): 580 % of control | T/C (endpoint: mean survival time, dose: 128.0 mg/kg/injection, schedule: Q01DX001 (oral), vehicle: saline with Tween-80): 102 % of control | T/C (endpoint: mean survival time, dose: 128.0 mg/kg/injection, schedule: Q01DX008 (oral), vehicle: saline): 151 % of control | T/C (endpoint: mean survival time, dose: 128.0 mg/kg/injection, schedule: Q03HX024 (oral), vehicle: saline with Tween-80): 295 % of control | T/C (endpoint: mean survival time, dose: 128.0 mg/kg/injection, schedule: Q04DX003 (oral), vehicle: saline): 119 % of control | T/C (endpoint: mean survival time, dose: 150.0 mg/kg/injection, schedule: Q01DX001 (ip), vehicle: saline with Tween-80): 608 % of control | T/C [4]: 612 % of control | T/C (endpoint: mean survival time, dose: 250.0 mg/kg/injection, schedule: Q01DX001 (ip), vehicle: saline with Tween-80): 214 % of control | T/C (endpoint: mean survival time, dose: 256.0 mg/kg/injection, schedule: Q01DX001 (oral), vehicle: saline with Tween-80): 101 % of control | T/C (endpoint: mean survival time, dose: 300.0 mg/kg/injection, schedule: Q01DX001 (ip), vehicle: saline with Tween-80): 83 % of control | T/C (endpoint: mean survival time, dose: 512.0 mg/kg/injection, schedule: Q01DX001 (oral), vehicle: saline with Tween-80): 108 % of control | T/C (endpoint: mean survival time, dose: 512.0 mg/kg/injection, schedule: Q01DX009 (oral), vehicle: saline): 169 % of control | T/C (endpoint: mean survival time, dose: 1024.0 mg/kg/injection, schedule: Q01DX001 (oral), vehicle: saline with Tween-80): 109 % of control | T/C (endpoint: mean survival time, dose: 1024.0 mg/kg/injection, schedule: Q01DX009 (oral), vehicle: saline): 177 % of control

Cc1ccc(S(=O)(=O)Nc2c([N+](=O)[O-])cc([N+](=O)[O-])c3ccccc23)cc1
T/C (endpoint: mean survival time, dose: 6.25 mg/kg/injection, schedule: Q01DX009 (ip), vehicle: saline with Tween-80): 104 % of control | T/C (endpoint: mean survival time, dose: 6.25 mg/kg/injection, schedule: Q04DX003 (ip), vehicle: saline with Tween-80): 100 % of control | T/C (endpoint: mean survival time, dose: 12.5 mg/kg/injection, schedule: Q01DX009 (ip), vehicle: saline with Tween-80): 100 % of control | T/C (endpoint: mean survival time, dose: 12.5 mg/kg/injection, schedule: Q04DX003 (ip), vehicle: saline with Tween-80): 96 % of control | T/C [2]: 103 % of control | T/C (endpoint: mean survival time, dose: 25.0 mg/kg/injection, schedule: Q04DX003 (ip), vehicle: saline with Tween-80): 100 % of control

Cc1ccc(NS(=O)(=O)c2cccc([N+](=O)[O-])c2)cc1Cl
T/C [5]: 92 % of control | T/C [6]: 97 % of control | T/C [7]: 92 % of control

O=C1OC(=O)C2C3CCC(O3)C12 (centres undefined)
T/C (endpoint: mean survival time, dose: 1.56 mg/kg/injection, schedule: Q01DX009 (ip), vehicle: saline): 98 % of control | T/C (endpoint: mean survival time, dose: 3.12 mg/kg/injection, schedule: Q01DX009 (ip), vehicle: saline): 101 % of control | T/C (endpoint: mean survival time, dose: 5.0 mg/kg/injection, schedule: Q01DX009 (ip), vehicle: saline with Tween-80): 103 % of control | T/C (endpoint: mean survival time, dose: 10.0 mg/kg/injection, schedule: Q01DX009 (ip), vehicle: saline with Tween-80): 100 % of control | T/C [1]: 98 % of control

S=c1nc[nH]c2nc[nH]c12.[W]
T/C (endpoint: median survival time, dose: 60.0 mg/kg/injection, schedule: Q01DX009 (ip), vehicle: water): 151 % of control (2×) and 169 % of control | T/C (endpoint: median survival time, dose: 60.0 mg/kg/injection, schedule: Q## X009 (ip), vehicle: water): 169 % of control | T/C (endpoint: median survival time, dose: 80.0 mg/kg/injection, schedule: Q01DX009 (ip), vehicle: water): 164 % of control and 167 % of control (2×) | T/C (endpoint: median survival time, dose: 80.0 mg/kg/injection, schedule: Q## X009 (ip), vehicle: water): 164 % of control | T/C (endpoint: median survival time, dose: 100.0 mg/kg/injection, schedule: Q01DX009 (ip), vehicle: water): 154 % of control | T/C (endpoint: median survival time, dose: 100.0 mg/kg/injection, schedule: Q01DX009 (other), vehicle: water): 154 % of control | T/C (endpoint: median survival time, dose: 120.0 mg/kg/injection, schedule: Q01DX009 (ip), vehicle: water): 158 % of control (2×) and 164 % of control | T/C (endpoint: median survival time, dose: 120.0 mg/kg/injection, schedule: Q01DX009 (other), vehicle: water): 164 % of control | T/C (endpoint: median survival time, dose: 140.0 mg/kg/injection, schedule: Q01DX009 (ip), vehicle: water): 163 % of control | T/C (endpoint: median survival time, dose: 140.0 mg/kg/injection, schedule: Q## X009 (ip), vehicle: water): 163 % of control | T/C (endpoint: median survival time, dose: 160.0 mg/kg/injection, schedule: Q01DX009 (ip), vehicle: water): 164 % of control | T/C (endpoint: median survival time, dose: 160.0 mg/kg/injection, schedule: Q01DX009 (other), vehicle: water): 164 % of control

COC1OCC(O)C(NC(=O)N(C)N=O)C1O (centres undefined)
T/C (endpoint: mean survival time, dose: 50.0 mg/kg/injection, schedule: Q01DX009 (ip), vehicle: saline): 160 % of control | T/C (endpoint: mean survival time, dose: 75.0 mg/kg/injection, schedule: Q01DX009 (ip), vehicle: saline): 186 % of control

COc1cc(OC)c(C(=O)CCl)c(O)c1Cl
T/C [8]: 93 % of control

O=[N+]([O-])c1cc(CCl)ccc1CCl
T/C (endpoint: mean survival time, dose: 75.0 mg/kg/injection, schedule: Q01DX001 (ip), vehicle: other): 96 % of control | T/C (endpoint: mean survival time, dose: 150.0 mg/kg/injection, schedule: Q01DX001 (ip), vehicle: other): 96 % of control

COc1ccc(OC)c(C2=CCCCCC2)c1OC
T/C [5]: 101 % of control | T/C [6]: 101 % of control | T/C [7]: 98 % of control

CCCC(=O)C1=C(O)C(CC2=C(O)C(C)(C)C(=O)C(C(=O)CCC)=C2O)=C(O)C(C)(C)C1=O
T/C [9]: 98 % of control | T/C [10]: 101 % of control

C=C1N(c2cc3ccccc3o2)C(=O)OC12CCCCC2
T/C [3]: 101 % of control | T/C [4]: 98 % of control | T/C (endpoint: mean survival time, dose: 400.0 mg/kg/injection, schedule: Q01DX001 (ip), vehicle: saline with Tween-80): 91 % of control

O=C(Nc1ccccc1C(F)(F)F)n1c(=S)[nH]c2cc([N+](=O)[O-])ccc21
T/C (endpoint: mean survival time, dose: 50.0 mg/kg/injection, schedule: Q01DX009 (ip), vehicle: saline with Tween-80): 90 % of control | T/C [8]: 105 % of control | T/C (endpoint: mean survival time, dose: 200.0 mg/kg/injection, schedule: Q01DX009 (ip), vehicle: saline with Tween-80): 94 % of control

O=C1CCc2ccccc21 (tested in a mixture with another compound)
T/C (endpoint: mean survival time, dose: 50.0 mg/kg/injection, schedule: Q04DX002 (ip), vehicle: saline with Tween-80): 96 % of control | T/C (endpoint: mean survival time, dose: 100.0 mg/kg/injection, schedule: Q04DX002 (ip), vehicle: saline with Tween-80): 101 % of control | T/C (endpoint: mean survival time, dose: 200.0 mg/kg/injection, schedule: Q04DX002 (ip), vehicle: saline with Tween-80): 96 % of control

COC1OC(COS(=O)(=O)c2ccc(C)cc2)C(SC#N)C1OS(=O)(=O)c1ccc(C)cc1 (centres undefined)
T/C (endpoint: mean survival time, dose: 50.0 mg/kg/injection, schedule: Q01DX001 (ip), vehicle: saline): 91 % of control | T/C [9]: 89 % of control | T/C [10]: 95 % of control | T/C (endpoint: mean survival time, dose: 400.0 mg/kg/injection, schedule: Q01DX001 (ip), vehicle: saline): 95 % of control

O=[As](O)(O)c1cccc2ccccc12
T/C (endpoint: mean survival time, dose: 1.25 mg/kg/injection, schedule: Q01DX009 (ip), vehicle: saline): 90 % of control | T/C (endpoint: mean survival time, dose: 2.5 mg/kg/injection, schedule: Q01DX009 (ip), vehicle: saline): 111 % of control

From PubChem BioAssay AID256 (DTP/NCI, 2004)
